{
  "source": "patent US20140056935A1",
  "about": "“PEPTIDE WHICH CAN INDUCE ANTIBODY CAPABLE OF RECOGNIZING STEREOSTRUCTURE OF HIV” (priority 2011, published 2014)",
  "origin": "cited, not measured here",
  "tested_on": "HIV",
  "details": "MAGI assay, Non-Patent Document 17",
  "data": [
    {"substance": "enfuvirtide", "values": [
      {"measurement": "activity relative to C34 native peptide monomer in terms of EC50 values", "result": "about 10 times"}
    ]}
  ]
}
